# Source: patent US5225411A, “Disubstituted polymethyleneimines” (priority 1990, dated 1993)
# Key:
# line P 388/ADR 10 = experiment: Flow cytometry, increase in fluorescence of ADR on the line P 388/ADR 10; assay type: cell-based, murine; conditions: ADR 50 μM, 5 h
# Description: (§1) By measuring that fluorescence it is possible to obtain a relative measurement of the intracellular concentration of ADR.
# (§2) […] After 5 hours' incubation, the intracellular uptake of adriamycin was evaluated by FCM.
# (§3) The analysis of each of the samples was carried out on a total of 10,000 cells at a speed of 1000 cells/sec.
# (§4) The results were presented in the form of linear histograms of the intracellular ADR fluorescence.
# (§5) Expression of the Results
# (§6) For each of the histograms, the channel mean fluorescence was determined by the apparatus information system. For all experiments:
# (§7) A negative control (cells without ADR) fixed the autofluorescence threshold.
# (§8) A positive control (cells with ADR) determined the MEAN value=MN1.
# (§9) The "test" tubes (cells with ADR and with compound) were used to determine, for each of the compounds and at each of the concentrations, the MEAN values=MN2.
# (§10) The results are expressed in the form of variations from the mean fluorescence obtained for each of the "test" tubes (MN2) in relation to the mean fluorescence obtained with the […] (MNl) : VAR-MEAN=MN2 -MN1. The parameter expressed is thus the increase in the fluorescence of adriamycin in the presence of the tested compounds.
# [1] = system: Chinese Hamster Pulmonary Line DC-3F/AD; experiment: Increase in the cytotoxicity of actinomycin D on the Chinese hamster pulmonary line DC-3F/AD; assay type: cell-based; conditions: 4 days;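 further: DC-3F/AD is an extremely resistant cell line whose resistance factor exceeds 10,000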
# Description: The cytotoxic agent used was actinomycin D.
# Line DC-3F/AD is an extremely resistant line. Its resistance factor is higher than 10,000.
# [2] = system: murine leukaemia P 388/ADR 10; experiment: Evaluation of the increase in cytotoxicity of adriamycin on the line P 388/ADR-10 in vitro (reversion factor); assay type: cell-based; conditions: adriamycin, P 388/ADR-10, 48 h, TOX = toxic
# Description: In this study, the cytotoxicity of adriamycin was measured in the absence and in the presence of the reversing compound.
# The compounds tested for their capacity to reverse MDR are added at the same time as the cytotoxic agent. The cells are then incubated for 48 hours.
# line DC-3F/AD = experiment: Flow cytometry, increase in fluorescence of ADR on the line DC-3F/AD; assay type: cell-based, Chinese Hamster; conditions: ADR 50 μM, 5 h
# Description: as §1, §2, §3, §4, §5, §6, §7, §8, §9, §10
Compound,Increase in fluorescence of ADR (VAR-MEAN = MN2 - MN1) (line P 388/ADR 10; compound 2 μM),Increase in fluorescence of ADR (VAR-MEAN = MN2 - MN1) (line P 388/ADR 10; compound 5 μM),Increase in fluorescence of ADR (VAR-MEAN = MN2 - MN1) (line P 388/ADR 10; compound 10 μM),Increase in fluorescence of ADR (VAR-MEAN = MN2 - MN1) (line P 388/ADR 10; compound 20 μM),Reversion Factor (RF) ([1]; compound 5 μM),Reversion Factor (RF) ([1]; compound 10 μM),Reversion Factor (RF) ([1]; compound 20 μM),Reversion Factor (RF) ([2]; compound 2.5 μM),Reversion Factor (RF) ([2]; compound 5 μM),Reversion Factor (RF) ([2]; compound 10 μM),Increase in fluorescence of ADR (VAR-MEAN = MN2 - MN1) (line DC-3F/AD; compound 2 μM),Increase in fluorescence of ADR (VAR-MEAN = MN2 - MN1) (line DC-3F/AD; compound 5 μM),Increase in fluorescence of ADR (VAR-MEAN = MN2 - MN1) (line DC-3F/AD; compound 10 μM),Increase in fluorescence of ADR (VAR-MEAN = MN2 - MN1) (line DC-3F/AD; compound 20 μM),Reversion Factor (RF) ([1]; compound 2.5 μM)
CN(C)CCCN1c2ccccc2Sc2ccc(Cl)cc21 [CHLOROPROMAZINE],3.30,5.15,4.60,6.20,< 13,< 12,< 13,,,,,,,,
COc1ccc([C@@H]2Sc3ccccc3N(CCN(C)C)C(=O)[C@@H]2OC(C)=O)cc1 [DILTIAZEM],3.10,6.65,13.45,23.15,< 11,< 10,< 11,,,,,,,,
OCCN(CCO)c1nc(N2CCCCC2)c2nc(N(CCO)CCO)nc(N3CCCCC3)c2n1 [DIPYRIDAMOLE],2.35,7.55,21.75,40.00,< 12,< 11,< 12,,,,,,,,
"C=CCNc1nc(NCC=C)nc(N2CCC(SCCC(c3ccccc3)c3ccccc3)CC2)n1 [Example 2, 1-[4,6-bis(allylamino)-2-s-triazinyl]-4-(3,3-diphenylpropylthio)piperidine]",,,,,17,171,,15.4,65.1,86.4,0.2,10.4,25.1,35.0,
"C=CCNc1nc(NCC=C)nc(N2CCC(N(C)CC(c3ccccc3)c3ccccc3)CC2)n1 [Example 4, 1-[4,6-bis(allylamino)-2-s-triazinyl)-4-[N-(2,2-di-phenylethyl)-N-methylamino]piperidine]",,,,,218,1256,,34.7,32.3,171.1,12.3,24.1,41.9,49.0,
"C=CCNc1nc(NCCC)nc(NC2CCN(CC(c3ccccc3)c3ccccc3)CC2)n1 [Example 11, 4-(4-allylamino-6-propylamino-2-s-triazinylamino)-1-(2,2-diphenylethyl)piperidine]",,,,,281,926,,87,65.2,TOX,12.6,18.9,29.9,40.5,
Fc1ccc(C(c2ccc(F)cc2)N2CCN(C/C=C/c3ccccc3)CC2)cc1 [FLUNARIZINE],7.35,10.10,19.90,41.00,< 13,16,TOX,,,25,,,,,
COC(=O)C1=C(C)NC(C)=C(C(=O)OC)C1c1ccccc1[N+](=O)[O-] [NIFEDIPINE],0.00,0.80,5.95,3.40,,,,,,,,,,,
c1ccc2c(c1)Nc1ccccc1S2 [PHENOTHIAZINE],0.00,0.00,0.00,0.00,< 12,< 12,< 12,9.4,23.1,,,,,,
O=c1[nH]c2ccccc2n1C1CCN(CCCC(c2ccc(F)cc2)c2ccc(F)cc2)CC1 [PIMOZIDE],25.60,49.42,73.13,73.64,28,78,TOX,,,,5.85,8.85,15.65,21.60,< 10
CC(=O)[C@H]1CC[C@H]2[C@@H]3CCC4=CC(=O)CC[C@]4(C)[C@H]3CC[C@]12C [PROGESTERONE],1.85,1.00,6.85,11.80,< 10,< 10,13,,1.7,2.5,,,,,
CCN(CC)CCCC(C)Nc1c2ccc(Cl)cc2nc2ccc(OC)cc12 (stereo not drawn) [QUINACRINE],11.83,15.73,27.73,52.77,< 13,< 12,TOX,,,,2.00,10.5,19.1,25.8,
C=C[C@H]1C[N@@]2CC[C@H]1C[C@@H]2[C@@H](O)c1ccnc2ccc(OC)cc12 [QUINIDINE],6.65,12.80,22.00,29.90,< 12,< 12,< 12,,6,17.4,,,,,
C=C[C@H]1C[N@@]2CC[C@H]1C[C@H]2[C@H](O)c1ccnc2ccc(OC)cc12 [QUININE],4.85,5.40,12.00,18.90,< 10,< 10,< 11,,,14.5,,,,,
CN1CCN(CCCN2c3ccccc3Sc3ccc(C(F)(F)F)cc32)CC1 [TRIFLUOPERAZINE],11.45,14.75,34.55,51.05,< 12,38,TOX,,,,0.00,0.00,4.10,13.40,
COC(=O)[C@@H]1[C@H]2C[C@H]3c4[nH]c5ccccc5c4CCN3C[C@@H]2CC[C@@H]1O [YOHIMBINE],2.30,0.05,4.70,3.45,< 12,< 12,< 12,,,,,,,,
COc1ccc(CCN(C)CCCC(C#N)(c2ccc(OC)c(OC)c2)C(C)C)cc1OC (stereo not drawn) [reference compound],9.89,21.90,39.62,56.50,,,,,,,2.00,2.60,7.55,11.45,
